Results as given in patent publication US12729377B2, “RNAi agents and compositions for inhibiting expression of angiopoietin-like 3 (ANGPTL3), and methods of use” (Arrowhead Pharmaceuticals, Inc., priority 2017, dated 2026).
In the oligonucleotide strings, read from the 5' end, every base follows the letter of its sugar. An asterisk marks phosphorothioate; unmarked linkages are phosphodiester. Other units and linkages are bracketed, terminal groups are in braces. A string of capitals states the bases alone. {NAG37} = tridentate N-acetyl-galactosamine targeting ligand, structure (NAG37)s; [invAb] = inverted abasic unit; m = 2'-O-methyl; f = 2'-fluoro

Tests used:
ANGPTL3 protein = test: Example 13: serum ANGPTL3 protein in HFCS diet-fed Rhesus monkeys; assay type: in vivo; conditions: for Avg ANGPTL3 Protein Normalized to Pre-Treatment (Fasted): 4.0 mg/kg sc on day 1 and day 29
Procedure: (§1) ANGPTL3 RNAi agent AD05488 was further evaluated in high-fructose corn syrup (HFCS) diet-fed Rhesus monkeys. Rhesus monkeys were placed on an HFCS diet 37 days prior to dosing. These animals were known to develop increased plasma triglycerides greater than 180 mg/dL on the HFCS diet. On day 1 and again on day 29, four (4) Rhesus monkeys were administered a subcutaneous injection containing 4.0 mg/kg of ANGPTL3 RNAi agent AD05488 formulated in saline (n=4). Two additional Rhesus monkeys were administered normal saline control.
(§2) Fasted blood samples were drawn for analysis, and serum samples were analyzed on days-8 (predose), 8, 15, 21, 29, and 36. ANGPTL3 expression levels, triglycerides, total cholesterol, high-density lipoprotein (HDL), and low-density lipoprotein (LDL) in serum were measured on a Cobas® Integra 400 (Roche Diagnostics), according to the manufacturer's recommendations.
(§3) The ANGPTL3 protein levels, triglyceride levels, total cholesterol levels, HDL levels, and LDL levels for each animal were normalized. For normalization, the level of ANGPTL3 protein, triglyceride, HDL, and total cholesterol, respectively, for each animal at a time point, was divided by the pre-treatment level of expression in that animal (in this case at day −8) to determine the ratio of expression “normalized to pre-treatment.”

ANGPTL3 gene [1] = test: Example 13: serum total cholesterol in HFCS diet-fed Rhesus monkeys; assay type: in vivo; conditions: for Avg Chol (Cholesterol) Normalized to Pre-Treatment (Fasted): 4.0 mg/kg sc on day 1 and day 29
Procedure: as §1, §2, §3

ANGPTL3 gene [2] = test: Example 12: serum HDL in LDLR knockout mice; assay type: in vivo, LDLR KO mice; conditions: 3.0 mg/kg sc day 1
Excerpt: To evaluate the effect of RNAi agent administration in a disease model, mice having a genetic mutation for the LDL receptor (referred to herein as LDLR KO mice) were commercially obtained (The Jackson Laboratory). The LDLR KO mice are homozygous for the Ldlr^tm1Her mutation, and have elevated serum cholesterol levels, particularly when placed on a high fat diet. For three weeks prior to the onset of the study, thirty-nine (39) LDLR KO mice were placed on a high fat diet (Teklad Custom Diets TD.88137). An additional eight (8) LDLR KO mice were placed on a normal chow diet over the same three-week period. Pre-dose serum samples were taken on day −15 and day −1 after a four hour fast. At day 1, each mouse was given a single subcutaneous administration of 200 μl/30 g animal body weight containing the respective mg/kg dose of an ANGPTL3 RNAi agent in D5W (dextrose in 5% water), control (D5W) with no RNAi agent, or a control RNAi agent that included a nucleotide sequence designed to target the Hepatitis B Virus (HBV) genome. A second injection of the same formulation was administered to the animals on day 29. The dosing regimen for the study is recited in the following Table 60:
Each mouse remained on its respective diet through the duration of study. The RNAi agent tested (AD05488) included a modified sequence and an N-acetyl-galactosamine-containing targeting ligand conjugated to the 5′ terminal end of the sense strand. (See Tables 3, […] modified sequences and targeting ligand structures). The injections were performed between the skin and muscle (i.e. subcutaneous injections) into the loose skin over the neck and shoulder area. Serum was collected on days 8, 15, 22, 29 (pre-second dose), 36, 43, 50, and 57. LDLR KO mice were fasted for four hours prior to each collection. On day 15, four (4) LDLR KO mice from Groups 1, 2, and 3 (i.e., the groups being administered the high fat “Western” diet) were sacrificed after serum collection, and on day 29, an additional four (4) LDLR KO mice from Groups 1, 2, and 3 were sacrificed after serum collection, for the purpose of performing mRNA assessments.
ANGPTL3 protein levels in serum were measured by ELISA assay (R&D Systems), according to the manufacturer's recommendations. Triglycerides, total cholesterol, high-density lipoprotein (HDL), and low-density lipoprotein (LDL) in serum were measured on a Cobas® Integra 400 (Roche Diagnostics), according to the manufacturer's recommendations.
The ANGPTL3 protein levels, triglyceride levels, total cholesterol levels, HDL levels, and LDL levels for each animal were normalized. For normalization, respective levels of ANGPTL3 protein, TG, total cholesterol, HDL, or LDL for each animal at a time point was divided by the average pre-treatment level of expression in that animal (in this case the average of day −15 and day −1) to determine the ratio of expression “normalized to pre-treatment.”
Expression at a specific time point was then normalized to the D5W control group that was administered the same diet (i.e., either the high fat “Western” diet or the normal chow-fed diet) by dividing the “normalized to pre-treatment” ratio for an individual animal by the mean “normalized to pretreatment” ratio of all mice in the D5W control group on the respective same diet, resulting in expression for each time point normalized to that in the control group.

Substance: AD05488: RNAi agent duplex: antisense AM07235-AS, sense AM07234-SS (antisense mU*fA*mC*fUmGfAmUfCmAfAmAfUmAfUmGfUmUfGmAfG*mC; sense {NAG37}*[invAb]*mGmCmUmCmAmAmCmAfUfAfUmUmUmGmAmUmCmAmGmUmA*[invAb])
- Avg ANGPTL3 Protein Normalized to Pre-Treatment (Fasted) (ANGPTL3 protein; Day 8): 0.229
- Avg ANGPTL3 Protein Normalized to Pre-Treatment (Fasted) (ANGPTL3 protein; Day 15): 0.154
- Avg ANGPTL3 Protein Normalized to Pre-Treatment (Fasted) (ANGPTL3 protein; Day 21): 0.116
- Avg ANGPTL3 Protein Normalized to Pre-Treatment (Fasted) (ANGPTL3 protein; Day 29): 0.114
- Avg ANGPTL3 Protein Normalized to Pre-Treatment (Fasted) (ANGPTL3 protein; Day 36): 0.064
- reduction in ANGPTL3 protein compared to pre-treatment (ANGPTL3 protein; each of the measured time points, 4.0 mg/kg on days 1 and 29, HFCS diet-fed Rhesus monkeys): significant reduction
- reductions in total cholesterol levels (ANGPTL3 gene [1]; 4.0 mg/kg on days 1 and 29, HFCS diet-fed Rhesus monkeys): reductions
- Avg Chol (Cholesterol) Normalized to Pre-Treatment (Fasted) (ANGPTL3 gene [1]; Day 8): 0.734
- Avg Chol (Cholesterol) Normalized to Pre-Treatment (Fasted) (ANGPTL3 gene [1]; Day 15): 0.641
- Avg Chol (Cholesterol) Normalized to Pre-Treatment (Fasted) (ANGPTL3 gene [1]; Day 21): 0.579
- Avg Chol (Cholesterol) Normalized to Pre-Treatment (Fasted) (ANGPTL3 gene [1]; Day 29): 0.549
- Avg Chol (Cholesterol) Normalized to Pre-Treatment (Fasted) (ANGPTL3 gene [1]; Day 36): 0.459
- Avg HDL Normalized to Pre-Treatment and Control (Diet Matched) (ANGPTL3 gene [2]; High Fat Diet, Day 8): 0.693
- Avg HDL Normalized to Pre-Treatment and Control (Diet Matched) (ANGPTL3 gene [2]; High Fat Diet, Day 15): 0.735
- Avg HDL Normalized to Pre-Treatment and Control (Diet Matched) (ANGPTL3 gene [2]; High Fat Diet, Day 22): 0.716
- Avg HDL Normalized to Pre-Treatment and Control (Diet Matched) (ANGPTL3 gene [2]; High Fat Diet, Day 29 (pre-second dose)): 0.711
- Avg HDL Normalized to Pre-Treatment and Control (Diet Matched) (ANGPTL3 gene [2]; Normal Diet, Day 8): 0.645
- Avg HDL Normalized to Pre-Treatment and Control (Diet Matched) (ANGPTL3 gene [2]; Normal Diet, Day 15): 0.745
- Avg HDL Normalized to Pre-Treatment and Control (Diet Matched) (ANGPTL3 gene [2]; Normal Diet, Day 22): 0.766
- Avg HDL Normalized to Pre-Treatment and Control (Diet Matched) (ANGPTL3 gene [2]; Normal Diet, Day 29 (pre-second dose)): 0.737
